In paper PMC5969508, “Stapled peptides as a new technology to investigate protein–protein interactions in human platelets” (Chemical Science, 2018):
Entries after “also recorded” stand apart in the source; their conditions may differ.

Columns and labels:
human platelets [1] = experiment: PS exposure (annexin-V binding) by flow cytometry; type: cell-based; settings: washed human platelets, 10 μM, 37 °C, time course up to 3 h, flow cytometry (Fig. 5A)
Protocol: Platelet activation markers (% positive platelets) were investigated following 1 h of peptide treatment. […] CD63 binding.
1.1 Preparation of washed platelet suspension
Human blood was collected from healthy volunteers, who had not taken medication for two weeks,
following informed consent in accordance with the Declaration of Helsinki. Blood was collected into 11 mM sodium citrate and washed platelets were prepared as follows: Platelet-rich plasma (PRP) was obtained by centrifugation (240 g, 15 min). Prostaglandin E1 (PGE1, 2 µM) was added to prevent premature platelet activation, and the plasma was centrifuged at 640 g for 15 min. […]
Treated washed platelet suspensions (1x10^7/mL) were analysed by flow cytometry using a C6 Accuri Flow Cytometer (Beckton Dickinson, UK), in the presence or absence of Annexin-V-PE (BD Biosciences, UK), anti-PAC-1 (BD Biosciences), anti-CD62 (BD Pharmingen, UK), or anti-CD-63P (BD Pharmingen). […]
PS exposure was assessed after incubation of 50 µL of washed platelet suspensions at 37 °C in 445 µL of […]
under the protection from direct light and analysed by flow cytometry.
Platelet activation markers (PAC -1, CD62P and CD63 binding) were assessed after incubation of 3 µL of […]
antibody and the peptide (1.1 μL of 1 mM stock solution in DMSO) . The suspensions were analysed by […]

human platelets [2] = settings: PRP, 10 μM FITC-labelled peptide, 15, 30, 60 minutes, flow cytometry, average of two independent repeats (Fig. SI_2b)
Source text: (1 picture or pasted object on this page, not shown here)

human platelets [3] = experiment: Confocal microscopy of platelets incubated with fluorescently labelled peptides; type: cell-based; settings: live washed platelets, 10 µM FITC-labelled peptide, 15 minutes incubation, confocal imaging (Fig. SI_5)
Protocol: Fig. 3 A functionalised staple is required to induce peptide uptake into platelets. (A) Platelets were incubated with TAMRA labelled model peptides (10 μM final concentration) for 1 h (white), 2 h (grey) and 3 h incubation (black) and the percentage positive for TAMRA fluorescence was quantified using flow cytometry. (B) Peptides showing high uptake within the first hour were analysed during first 5 min following treatment. Changes in platelet-associated fluorescence were recorded in real time using flow cytometry. Unlabelled platelets were recorded for 30 s prior to addition of the given peptide. (C) Platelets were incubated with 10 μM of TAMRA-model peptides for 1 h prior to imaging by confocal microscopy. ^‡ […]
Peptide uptake experiments of the most permeable model peptides 5, 13–16 were repeated in the presence of platelet-rich plasma (PRP) to ensure realistic conditions (ESI, Fig. SI_2a ^†).
Figure SI_3. […]
Peptides were used to a final concentration of 10 µM. […] Images of TAMRA-labelled model peptide stained platelets were acquired after 1 h incubation1 using with excitation at 565 nm and emission was detected with a 560 -615 nm BP filter. […]
were acquired after 15 minutes incubation1 using excitation at 488 nm and emission was detected with […]

## CC[C@H](C)[C@H](NC(C)=O)C(=O)N[C@@H](Cc1c[nH]c2ccccc12)C(=O)N[C@H](C(=O)N[C@@H](C)C(=O)N[C@@H](CCC(N)=O)C(=O)N[C@@H](CCC(=O)O)C(=O)N[C@@H](CC(C)C)C(=O)N[C@@H](CCCNC(=N)N)C(=O)N[C@H]1CCCn2cc(nn2)CCCc2cn(nn2)CCC[C@@H](C(=O)N[C@@H](Cc2ccccc2)C(=O)N[C@@H](CC(N)=O)C(=O)N[C@@H](C)C(=O)N[C@@H](Cc2ccc(O)cc2)C(=O)N[C@@H](Cc2ccc(O)cc2)C(=O)N[C@@H](C)C(=O)N[C@@H](CCCNC(=N)N)C(=O)N[C@@H](CCCNC(=N)N)C(N)=O)NC(=O)[C@H](CC(=O)O)NC(=O)CNC(=O)[C@H]([C@@H](C)CC)NC1=O)[C@@H](C)CC [peptide 18]
Human platelets [1]
  PS exposure / annexin-V binding (in words): No annexin-V binding was observed
Human platelets [2]
  platelet fluorescence of FITC-labelled Bim BH3 peptide in plasma: high platelet fluorescence in plasma
Human platelets [3]
  localisation / platelet permeability of FITC-labelled Bim BH3 peptide: poor membrane permeability; also recorded: forming aggregates outside the platelet cytosol; also recorded: form fluorescent aggregates outside the platelets
